From patent US20060069132A1, “Azolecarboxamide herbicides” (priority 2004, published 2006)
Like-named read-outs stand apart in the source and are kept apart here.

What was measured:
redroot pigweed = test: Test A pre-/postemergence herbicide test; format: in vivo, Amaranthus retroflexus; settings: for pest or weed control at 500 g/ha / pest or weed control at 2000 g/ha: Amaranthus retroflexus, 240 h
In short: (§1)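 Greenhouse injury scoring (0–100, complete control = 100) at approximately ten days follows simultaneous pre- and postemergence application. Soil received a directed spray after seeding; seedlings of 2–10 cm at the one- to two-leaf stage were sprayed to runoff.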

wheat = test: Test B postemergence herbicide test; format: in vivo, Triticum aestivum; set-up: key to Wheat plant response rating: 0 = no effect, 100 = complete control; settings: for Plant response rating, Wheat: visual rating after 13 to 15 days; for plant injury at 125 g/ha / plant injury at 500 g/ha: Triticum aestivum, post-emergence, 336 h, read-out: Wheat plant response rating
In short: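 Each value is a visual 0–100 response rating taken against controls 13 to 15 days after treatment in the greenhouse. Plants received formulated chemical postemergence at the 1- to 4-leaf stage or, in flooded paddy, at the 2-leaf stage.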

morningglory = test: Test A pre-/postemergence herbicide test; format: in vivo, Ipomoea spp.; settings: for pest or weed control at 500 g/ha / pest or weed control at 2000 g/ha: Ipomoea, 240 h
In short: as §1

Surinam grass = test: Test B pre-/postemergence herbicide test; format: in vivo, Urochloa decumbens; settings: for pest or weed control at 500 g/ha / pest or weed control at 125 g/ha: Urochloa decumbens
In short: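 Test chemicals in a non-phytotoxic solvent mixture with surfactant were applied preemergence to seeded species and postemergence to plants 2-18 cm tall (1- to 4-leaf stage); rice and barnyardgrass were also tested in a flooded paddy at the 2-leaf stage. Visual rating versus controls after 13-15 days in greenhouse, scale 0 (no effect) to 100 (complete control).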

[1] = Postemergence, 500 g ai/ha, scale 0 (no effect) to 100 (complete control)
[2] = Postemergence, 500 g ai/ha, 0 to 100 scale, 0 no effect, 100 complete control
[3] = Postemergence, 2000 g ai/ha, 0 to 100 scale, 0 no effect, 100 complete control
[4] = Preemergence, 500 g ai/ha, visual rating, 0 to 100 scale (0 no effect, 100 complete control)
[5] = Preemergence, 2000 g ai/ha, 0 to 100 scale, 0 no effect, 100 complete control
[6] = postemergence, 125 g ai/ha, visual rating, scale 0 (no effect) to 100 (complete control)
[7] = Postemergence, 500 g ai/ha, visual rating after 13 to 15 days, scale 0 (no effect) to 100 (complete control)
[8] = preemergence, 125 g ai/ha, 0 to 100 scale, 0 is no effect, 100 is complete control
[9] = Preemergence, 2000 g ai/ha, visual rating, 0 to 100 scale (0 no effect, 100 complete control)
[10] = post-emergence, postemergence, 125 g ai/ha, visual rating, scale 0 (no effect) to 100 (complete control), read-out: Surinam Grass plant response rating
[11] = pre-emergence, 125 g ai/ha, 0 = no effect, 100 = complete control, read-out: Surinam Grass plant response rating (0 to 100 scale)
[12] = pre-emergence, 500 g ai/ha, visual rating, 0 = no effect, 100 = complete control, read-out: Plant response rating, Surinam Grass
[13] = postemergence, 500 g ai/ha, scale 0 to 100, 0 is no effect, 100 is complete control
[14] = post-emergence, postemergence, 500 g ai/ha, scale 0 to 100, 0 is no effect, 100 is complete control, read-out: Surinam Grass plant response rating
[15] = 125 g ai/ha, 0 = no effect, 100 = complete control, preemergence
[16] = 500 g ai/ha, visual rating, 0 = no effect, 100 = complete control, preemergence
[17] = 125 g ai/ha, visual rating, scale 0 (no effect) to 100 (complete control), postemergence
[18] = 125 g ai/ha, 0 is no effect, 100 is complete control, preemergence
[19] = 500 g ai/ha, scale 0 to 100, 0 no effect, 100 complete control, preemergence
[20] = postemergence, 125 g ai/ha, scale 0 to 100

SMILES: CCn1nc(C(C)(C)C)cc1C(=O)Nc1cccc(C(=O)NCC(F)(F)F)c1 [Compound 43, 3-(1,1-dimethylethyl)-1-ethyl-N-[3-[[(2,2,2-trifluoroethyl)amino]carbonyl]-phenyl]-1H-pyrazole-5-carboxamide]
- pest or weed control at 500 g/ha (redroot pigweed; post-emergence, Postemergence, 500 g ai/ha, 0 to 100 scale, 0 no effect, 100 complete control, read-out: Plant response rating, Pigweed): 100%
- pest or weed control at 2000 g/ha (redroot pigweed; post-emergence, Postemergence, 2000 g ai/ha, 0 to 100 scale, 0 no effect, 100 complete control, read-out: Plant response rating, Pigweed): 100%
- pest or weed control at 500 g/ha (redroot pigweed; pre-emergence, Preemergence, 500 g ai/ha, visual rating, 0 to 100 scale (0 no effect, 100 complete control), read-out: Pigweed plant response rating): 100%
- pest or weed control at 2000 g/ha (redroot pigweed; pre-emergence, Preemergence, 2000 g ai/ha, 0 to 100 scale, 0 no effect, 100 complete control, read-out: Pigweed plant response rating): 100%
- Plant response rating, Wheat (wheat; [1]): 30
- pest or weed control at 500 g/ha (morningglory; post-emergence, Postemergence, 500 g ai/ha, 0 to 100 scale, 0 no effect, 100 complete control, read-out: Plant response rating, Morningglory): 20%
- pest or weed control at 2000 g/ha (morningglory; post-emergence, Postemergence, 2000 g ai/ha, 0 to 100 scale, 0 no effect, 100 complete control, read-out: Plant response rating, Morningglory): 30%
- pest or weed control at 500 g/ha (morningglory; pre-emergence, Preemergence, 500 g ai/ha, visual rating, 0 to 100 scale (0 no effect, 100 complete control), read-out: Morningglory plant response rating): 10%
- pest or weed control at 2000 g/ha (morningglory; pre-emergence, Preemergence, 2000 g ai/ha, 0 to 100 scale, 0 no effect, 100 complete control, read-out: Morningglory plant response rating): 40%
- pest or weed control at 500 g/ha (Surinam grass; post-emergence, Postemergence, 500 g ai/ha, visual rating after 13 to 15 days, scale 0 (no effect) to 100 (complete control), read-out: Plant response rating, Surinam Grass): 80%
- pest or weed control at 500 g/ha (Surinam grass; pre-emergence, Preemergence, 500 g ai/ha, scale 0 to 100, read-out: Surinam Grass plant response rating): 50%
- pest or weed control at 125 g/ha (Surinam grass; pre-emergence, preemergence, 125 g ai/ha, 0 to 100 scale, 0 is no effect, 100 is complete control, read-out: Plant response rating, Surinam Grass): 30%

SMILES: CCn1nc(C(C)(C)C)cc1C(=O)Nc1cccc(C(=O)NOC)c1 [Compound 67]
- Plant response rating, Pigweed (redroot pigweed; [2]): 50
- Plant response rating, Pigweed (redroot pigweed; [3]): 85
- Pigweed plant response rating (redroot pigweed; [4]): 0
- Pigweed plant response rating (redroot pigweed; [5]): 90
- Plant response rating, Wheat (wheat; [1]): 10
- Wheat plant response rating (wheat; [6]): 10
- Plant response rating, Morningglory (morningglory; [2]): 5
- Plant response rating, Morningglory (morningglory; [3]): 20
- Morningglory plant response rating (morningglory; [4]): 0
- Morningglory plant response rating (morningglory; [5]): 30
- Plant response rating, Surinam Grass (Surinam grass; [7]): 10
- Surinam Grass plant response rating (Surinam grass; [6]): 10
- Plant response rating, Surinam Grass (Surinam grass; [8]): 0

SMILES: CCOC(=O)c1cccc(NC(=O)c2cc(C(C)(C)C)nn2CCF)c1 [Compound 79]
- Plant response rating, Pigweed (redroot pigweed; [2]): 95
- Plant response rating, Pigweed (redroot pigweed; [3]): 85
- Pigweed plant response rating (redroot pigweed; [4]): 45
- Pigweed plant response rating (redroot pigweed; [5]): 90
- Plant response rating, Wheat (wheat; [1]): 40
- Wheat plant response rating (wheat; [6]): 30
- Plant response rating, Morningglory (morningglory; [2]): 15
- Plant response rating, Morningglory (morningglory; [3]): 25
- Morningglory plant response rating (morningglory; [4]): 20
- Morningglory plant response rating (morningglory; [5]): 60
- Plant response rating, Surinam Grass (Surinam grass; [7]): 40
- Surinam Grass plant response rating (Surinam grass; [6]): 30
- Plant response rating, Surinam Grass (Surinam grass; [8]): 0

SMILES: C=CCn1nc(C(C)(C)C)cc1C(=O)Nc1cccc(C(C)=NO)c1 [Compound 117]
- Pigweed plant response rating (redroot pigweed; [2]): 80
- Plant response rating, Pigweed (redroot pigweed; [3]): 95
- Pigweed plant response rating (redroot pigweed; [4]): 55
- Pigweed plant response rating (redroot pigweed; [9]): 90
- Plant response rating, Wheat (wheat; [1]): 20
- Wheat plant response rating (wheat; [6]): 10
- Morningglory plant response rating (morningglory; [2]): 20
- Plant response rating, Morningglory (morningglory; [3]): 70
- Morningglory plant response rating (morningglory; [4]): 45
- Morningglory plant response rating (morningglory; [9]): 75
- Plant response rating, Surinam Grass (Surinam grass; 500 g ai/ha, visual rating 0-100, 0 no effect, 100 complete control, preemergence): 60
- Plant response rating, Surinam Grass (Surinam grass; [7]): 40
- Surinam Grass plant response rating (Surinam grass; [6]): 30
- Plant response rating, Surinam Grass (Surinam grass; [8]): 30

SMILES: CCn1nc(C(C)(C)C)cc1C(=O)Nc1ccc(F)c(C(=O)N(C)C)c1 [Compound 236, N-[3-[(dimethylamino)carbonyl]-4-fluorophenyl]-3-(1,1-dimethylethyl)-1-ethyl-1H-pyrazole-5-carboxamide]
- plant injury at 125 g/ha (wheat; [6]): 10%
- plant injury at 500 g/ha (wheat; postemergence, 500 g ai/ha, visual rating, scale 0 (no effect) to 100 (complete control)): 20%
- pest or weed control at 125 g/ha (Surinam grass; [10]): 0%
- pest or weed control at 500 g/ha (Surinam grass; post-emergence, postemergence, 500 g ai/ha, visual rating, scale 0 (no effect) to 100 (complete control), read-out: Surinam Grass plant response rating): 20%
- pest or weed control at 125 g/ha (Surinam grass; [11]): 20%
- pest or weed control at 500 g/ha (Surinam grass; [12]): 60%

SMILES: CCNC(=O)c1cc(NC(=O)c2cn(C(C)(C)C)nc2CC)ccc1F [Compound 241, 1-(1,1-dimethylethyl)-3-ethyl-N-[3-[(ethylamino)carbonyl]-4-fluorophenyl]-1H-pyrazole-4-carboxamide]
- plant injury at 125 g/ha (wheat; [6]): 0%
- plant injury at 500 g/ha (wheat; [13]): 10%
- pest or weed control at 125 g/ha (Surinam grass; [10]): 10%
- pest or weed control at 500 g/ha (Surinam grass; [14]): 20%
- pest or weed control at 125 g/ha (Surinam grass; [11]): 10%
- pest or weed control at 500 g/ha (Surinam grass; [12]): 90%

SMILES: CCn1nc(C(C)(C)C)cc1C(=O)Nc1cc(C(=O)OC(C)C)c(F)cc1F [Compound 248]
- Wheat plant response rating (wheat; [6]): 30
- Wheat plant response rating (wheat; [13]): 40
- Surinam Grass plant response rating (0 to 100 scale) (Surinam grass; [15]): 20
- Plant response rating, Surinam Grass (Surinam grass; [16]): 60
- Surinam Grass plant response rating (Surinam grass; [6]): 10
- Surinam Grass plant response rating (Surinam grass; [13]): 20

SMILES: CCOC(=O)c1ccc(F)c(NC(=O)c2cc(C3(C)CC3)nn2CC)c1 [Compound 296]
- Wheat plant response rating (wheat; [17]): 20
- Wheat plant response rating (wheat; [13]): 30
- Surinam Grass plant response rating (0 to 100 scale) (Surinam grass; [15]): 20
- Surinam Grass plant response rating (Surinam grass; [17]): 40
- Plant response rating, Surinam Grass (Surinam grass; [16]): 60
- Surinam Grass plant response rating (Surinam grass; [13]): 50

SMILES: CCc1nn(C(C)C)nc1C(=O)Nc1cccc(C(=O)N(C)C)c1 [Compound 358, N-[3-[(dimethylamino)carbonyl)phenyl]-5-ethyl-2-(1-methylethyl)-2H-1,2,3-triazole-4-carboxamide]
- plant injury at 125 g/ha (wheat; 125 g ai/ha, visual rating, scale 0 (no effect) to 100 (complete control)): 0%
- plant injury at 500 g/ha (wheat; [13]): 10%
- Plant response rating (0 to 100 scale), Surinam Grass (Surinam grass; [18]): 50
- pest or weed control at 125 g/ha (Surinam grass; post-emergence, 125 g ai/ha, visual rating, scale 0 (no effect) to 100 (complete control), read-out: Surinam Grass plant response rating): 10%
- pest or weed control at 500 g/ha (Surinam grass; [14]): 10%
- pest or weed control at 500 g/ha (Surinam grass; [12]): 100%

SMILES: C#CCNC(=O)c1cccc(NC(=O)c2nn(C(C)(C)C)nc2CC)c1 [Compound 380]
- Wheat plant response rating (wheat; [17]): 10
- Wheat plant response rating (wheat; [19]): 100
- Wheat plant response rating (wheat; [1]): 10
- Plant response rating (0 to 100 scale), Surinam Grass (Surinam grass; [18]): 40
- Surinam Grass plant response rating (Surinam grass; [17]): 10
- Surinam Grass plant response rating (Surinam grass; [1]): 30

SMILES: C#CCOc1cccc(NC(=O)c2cc(C(C)(C)C)nn2CC)c1 [Compound 411]
- Wheat plant response rating (wheat; [19]): 60
- Wheat plant response rating (wheat; [1]): 30
- Wheat plant response rating (wheat; [20]): 20
- Plant response rating (0 to 100 scale), Surinam Grass (Surinam grass; [18]): 10
- Surinam Grass plant response rating (Surinam grass; [1]): 10
- Surinam Grass plant response rating (Surinam grass; [20]): 0

SMILES: C=CCOc1cccc(NC(=O)c2cc(C(C)(C)C)nn2CC)c1 [Compound 412]
- Wheat plant response rating (wheat; [19]): 20
- Wheat plant response rating (wheat; [1]): 20
- Wheat plant response rating (wheat; [20]): 10
- Plant response rating (0 to 100 scale), Surinam Grass (Surinam grass; [18]): 0
- Surinam Grass plant response rating (Surinam grass; [1]): 30
- Surinam Grass plant response rating (Surinam grass; [20]): 0
